From patent US20260069584A1, “METHODS OF TREATING CHRONIC MYELOID LEUKEMIA USING THE TYROSINE KINASE INHIBITOR VODOBATINIB” (Sun Pharma Advanced Research Company Ltd., priority 2022, published 2026)
Values joined by “and” are separate entries in the source; they are usually repeats but may differ in a detail not shown here. Equal entries are not always repeated.

What was measured:
[1] = system: Ph+ CML (CP CML, AP CML and BP CML) and Ph+ ALL; assay: Parts B and C pooled (n=59): disease response; type: in vivo, human
Description: Additionally, 71.2% of all the subjects were refractory and/or intolerant to ≥3 TKIs. The MCyR and MMR in subjects with CP CML were 63% and 34.8%, respectively, and those with more aggressive disease viz. AP CML, BP CML and Ph+ ALL were 53.8% and 30.8%, respectively.
The MTD of the compound of Formula I was 204 mg while RP2D was 174 mg QD. Anti-leukemic activity in the form of hematological, cytogenetic and molecular responses was reported across Parts B and C (n=59). Major cytogenetic responses were reported in 61% of subjects while major molecular responses were reported in 33.9% of subjects across doses. […] There is limited evidence of activity in the CML literature in such a heavily pre-treated population.

[2] = Oral toxicity study in Wistar Rats; conditions: rat, in vivo
in vivo = type: in vivo; conditions: 14-day study
[3] = target: ABL1 kinase and its mutant forms; assay: In-vitro ABL1 kinase inhibition; type: biochemical

## Cc1ccc(C(=O)NNC(=O)c2c(C)cccc2Cl)cc1C#Cc1cnc2ccccc2c1 [compound of Formula I, N′-(2-chloro-6-methylbenzoyl)-4-methyl-3-[2-(3-quinolyl)ethynyl]-benzohydrazide]
[1]; 174 mg initial dose, 2 subjects
  major molecular response deepened to complete molecular response: 9.1%
[1]; 174 mg initial dose, 20 out of 24 subjects
  complete hematological response: 83.3%
[1]; 29 subjects with prior ponatinib (n=11 of 29)
  MMR: 37.93% and 37.9%
[1]; 29 subjects with prior ponatinib (n=15 of 29)
  MCyR: 51.7%
[1]; AP CML, BP CML and Ph+ ALL
  MCyR: 53.8%
  MMR: 30.8%
[1]; RP2D of 174 mg, independent of prior ponatinib exposure
  major cytogenetic response: 50%
[1]; all subjects, across doses
  major cytogenetic response (MCyR): 61%
  major molecular response (MMR): 33.9%
[1]; subjects with CP CML
  MCyR: 63%
  MMR: 34.8%
[2]
  NOAEL: 100 mg/kg/day
In vivo
  dose up to which no mortality or severe clinical signs were observed: ≤ 625 mg/kg/day
In vivo; dog, in vivo
  NOAEL at 14 days: 83 mg/kg/day
[3]
  IC50: nanomolar
